Each block holds one molecule with its values, some of them ahead of it.
Key:
[1] = biological target: CDK2/CyclinE (Homo sapiens (Human), UniProt P24941); experiment: CDK2/cyclinE kinase assay (Nanosyn, microfluidic Caliper platform); type: biochemical
Experimental: Selected compounds disclosed herein were tested in CDK4/cyclinD1, CDK2/CycA and CDK2/cyclinE kinase assays by Nanosyn (Santa Clara, Calif.) to determine their inhibitory effect on these CDKs. The assays were performed using microfluidic kinase detection technology (Caliper Assay Platform). The compounds were tested in 12-point dose-response format in singlicate at Km for ATP. Phosphoacceptor substrate peptide concentration used was 1 μM for all assays and Staurosporine was used as the reference compound for all assays.

[2] = biological target: CDK2/CyclinA (Homo sapiens (Human), UniProt P24941); experiment: CDK2/CycA kinase assay (Nanosyn, microfluidic Caliper platform); type: biochemical
Experimental: (§1) Selected compounds disclosed herein were tested in CDK4/cyclinD1, CDK2/CycA and CDK2/cyclinE kinase assays by Nanosyn (Santa Clara, Calif.) to determine their inhibitory effect on these CDKs. The assays were performed using microfluidic kinase detection technology (Caliper Assay Platform). The compounds were tested in 12-point dose-response format in singlicate at Km for ATP. Phosphoacceptor substrate peptide concentration used was 1 μM for all assays and Staurosporine was used as the reference compound for all assays. Specifics of each assay are as described below:
CDK2/CyclinA: Enzyme concentration: 0.2 nM; ATP concentration: 50 μM; Incubation time: 3 hr.

[3] = biological target: CDK4/CyclinD1 (Homo sapiens (Human), UniProt P11802); experiment: CDK4/cyclinD1 kinase assay (Nanosyn, microfluidic Caliper platform); type: biochemical; details: ATP at Km (200 uM); read-out: CDK4/CycD1 IC50
Chain of CDK4/CyclinD1 (P11802 whole entry, species assumed): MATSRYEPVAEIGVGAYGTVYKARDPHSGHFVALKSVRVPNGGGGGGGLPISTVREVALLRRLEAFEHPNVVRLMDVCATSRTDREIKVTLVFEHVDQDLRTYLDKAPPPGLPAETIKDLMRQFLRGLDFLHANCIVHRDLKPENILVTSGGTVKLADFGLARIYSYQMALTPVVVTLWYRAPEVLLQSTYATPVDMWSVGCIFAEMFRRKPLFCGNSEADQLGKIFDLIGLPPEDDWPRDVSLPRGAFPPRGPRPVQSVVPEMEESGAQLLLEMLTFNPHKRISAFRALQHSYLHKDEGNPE
Chain of CDK4/CyclinD1 (P24385 whole entry partner, species assumed): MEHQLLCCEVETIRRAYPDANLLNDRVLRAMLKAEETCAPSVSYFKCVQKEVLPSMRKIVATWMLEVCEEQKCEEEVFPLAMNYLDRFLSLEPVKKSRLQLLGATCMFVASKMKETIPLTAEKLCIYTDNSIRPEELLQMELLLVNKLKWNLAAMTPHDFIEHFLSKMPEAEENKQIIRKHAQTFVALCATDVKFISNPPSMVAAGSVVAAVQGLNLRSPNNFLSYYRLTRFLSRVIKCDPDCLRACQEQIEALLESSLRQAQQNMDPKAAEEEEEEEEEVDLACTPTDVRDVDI
Experimental: as §1
CDK4/CyclinD1: Enzyme concentration: 1 nM; ATP concentration: 200 μM; Incubation time: 10 hr.

[4] = system: MCF7 (breast adenocarcinoma, Rb-positive); experiment: Cellular proliferation assay (CellTiter-Glo), MCF7; type: cell-based
Experimental: The MCF7 cells were seeded in Costar (Tewksbury, Mass.) 3903 96 well tissue culture treated white walled/clear bottom plates. A nine point dose response dilution series from 10 uM to 1 nM was performed and cell viability was determined after six days of compound treatment as indicated using the CellTiter-Glo® luminescent cell viability assay (CTG; Promega, Madison, Wis., United States of America) following the manufacturer's recommendations. Plates were read on a BioTek (Winooski, Vt.) Syngergy2 multi-mode plate reader. The Relative Light Units (RLU) were plotted as a result of variable molar concentration and data was analyzed using Graphpad (LaJolla, Calif.) Prism 5 statistical software to determine the EC50 for each compound.
(§2) Cellular proliferation assays were conducted using the following cancer cell lines: MCF7 (breast adenocarcinoma—Rb-positive), ZR-75-1 (breast ductal carcinoma—Rb-positive), H69 (human small cell lung cancer—Rb-negative) cells, or A2058 (human metastatic melanoma cells—Rb-negative). These cells were seeded in Costar (Tewksbury, Mass.) […] 96 well tissue culture treated white walled/clear bottom plates. Cells were treated with the compounds of Table 1 as nine point dose response dilution series from 10 uM to 1 nM. Cells were exposed to compounds and then cell viability was determined after either four (H69) or six (MCF7, ZR75-1, A2058) days as indicated using the CellTiter-Glo® luminescent cell viability assay (CTG; Promega, Madison, Wis., United States of America) following the manufacturer's recommendations. Plates were read on BioTek (Winooski, Vt.) Syngergy2 multi-mode plate reader. The Relative Light Units (RLU) were plotted as a result of variable molar concentration and data was analyzed using Graphpad (LaJolla, Calif.) Prism 5 statistical software to determine the EC50 for each compound.

[5] = system: ZR-75-1 (breast ductal carcinoma, Rb-positive); experiment: Cellular proliferation assay (CellTiter-Glo), ZR-75-1; type: cell-based
Experimental: as §2

[6] = system: HSPCs (LKS+); experiment: Bone marrow HSPC proliferation by EdU incorporation and flow cytometry; type: in vivo; details: 150 mg/kg oral gavage, mice
Experimental: . JCNI 2012; 104(6):476-487 (FIG. 2A). […].
Mice were then sacrificed at the indicated times (0, 12, 24, 36, or 48 hours following compound administration), and bone marrow was harvested (n=3 mice per time point), as previously described (Johnson et al. J. Clin. Invest. (2010) 120(7), 2528-2536). Four hours before the bone marrow was harvested, mice were treated with 100 μg of EdU by intraperitoneal injection (Invitrogen). Bone marrow mononuclear cells were harvested and immunophenotyped using previously described methods and percent EdU positive cells were then determined (Johnson et al. J. Clin. Invest. (2010) 120(7), 2528-2536). In brief, HSPCs were identified by expression of lineage markers (Lin−), Sca1 (S+), and c-Kit (K+).
Four hours before animals were sacrificed and the bone marrow was harvested, mice were treated with 100 μg of EdU by intraperitoneal injection. Three mice per group were sacrificed at 12 hours and the remaining three animals per group were sacrificed at 24 hours. Results are shown in FIG. 5A as the ratio of EdU positive cells for treated animals at 12 or 24 hour time points compared to control.
Further experiments were completed with Compound T examining dose response and longer periods of compound treatment. […] […].
Both compounds were administered at 150 mg/kg by oral gavage. One hour prior to harvesting bone marrow, EdU was IP injected to label cycling cells. Bone marrow was harvested at 12, 24, 36, and 48 hours after compound treatment and the percentage of EdU positive HSPC cells was determined at each time point.

[7] = Mouse pharmacokinetics (oral gavage / intravenous); type: in vivo, mice; details: plasma, 30 mg/kg, read-out: F (oral bioavailability)
Experimental: Blood samples were taken at 0, 0.25, 0.5, 1.0, 2.0, 4.0, and 8.0 hours post dosing and the plasma concentrations were determined by HPLC.

[8] = system: MMTV-c-neu (Rb-positive) tumors; experiment: MMTV-c-neu HER2-driven (Rb-positive) luminal breast cancer mouse model; type: in vivo, mice
Description: A HER2-driven model (Rb-positive) of breast cancer (Muller W J, Sinn E, Pattengale P K, Wallace R, Leder P. Single-step induction of mammary adenocarcinoma in transgenic mice bearing the activated c-neu oncogene. Cell 1988; 54: 105-15), that expresses c-neu (the mouse ortholog of human HER2) driven by the MMTV promoter was used in the following example. This model was chosen because previous studies in murine (Yu Q, Geng Y, Sicinski P. Specific protection against breast cancers by cyclin D1 ablation. Nature 2001; 411: 1017-21; Landis M W, Pawlyk B S, Li T, Sicinski P, Hinds P W. Cyclin D1-dependent kinase activity in murine development and mammary tumorigenesis. Cancer Cell 2006; 9: 13-22; Reddy H K, Mettus R V, Rane S G, Grana X, Litvin J, Reddy E P. Cyclin-dependent kinase 4 expression is essential for neu-induced breast tumorigenesis. Cancer Res 2005; 65: 10174-8; Yu Q, Sicinska E, Geng Y, Ahnstrom M, Zagozdzon A, Kong Y, et al. Requirement for CDK4 kinase function in breast cancer. Cancer Cell 2006; 9: 23-32.) and human HER2-positive breast cancer (An H X, Beckmann M W, Reifenberger G, Bender H G, Niederacher D. Gene amplification and overexpression of CDK4 in sporadic breast carcinomas is associated with high tumor cell proliferation. Am J Pathol 1999; 154: 113-8; Samady L, Dennis J, Budhram-Mahadeo V, Latchman DS. Activation of CDK4 gene expression in human breast cancer cells by the Brn-3b POU family transcription factor. Cancer Biol Ther 2004; 3: 317-23; Takano Y, Takenaka H, Kato Y, Masuda M, Mikami T, Saegusa M, et al. Cyclin D1 overexpression in invasive breast cancers: correlation with cyclin-dependent kinase 4 and oestrogen receptor overexpression, and lack of correlation with mitotic activity.
MMTV-neu mice were generated and observed post-lactation, with tumors observed with a median latency of approximately 25 weeks. Mice were enrolled in therapy studies when tumors reached a standard size (50-60 mm3) that permitted easy serial assessment. […] Tumor volumes were calculated by the formula, Volume=[(width)^2×length]/2. Tumor-bearing mice were euthanized at the indicated times due to predefined morbidity, tumor ulceration, or a tumor size of more than 1.5 cm in diameter.
Tumors were serially assessed weekly using caliper measurements. Therapeutic intervention began once tumors reached 40-64 mm^3. Tumor volume was calculated using the formula […]. All three compounds were administered orally via medicated diets (100 mg/kg/d). Medicated diets were administered for 28 consecutive days and then stopped. RECIST criteria were used to assess objective response rates.

- Fold Selectivity (CDK2/CycE/CDK4) [1]: 21263
- IC50 ([1]; ATP at Km (100 uM), read-out: CDK2/CycE IC50): 16500 nM
- Fold Selectivity (CDK2/CycA/CDK4) [2]: 3402
- IC50 ([2]; ATP at Km (50 uM)): 2640 nM
- IC50 [3]: 0.8 nM
Compound: CC1CN(c2ccc(Nc3ncc4cc5n(c4n3)C3(CCCC3)CNC5=O)nc2)CCN1CCC(C)(C)C (centres unmarked) [PPP]

- bioavailability [7]: 2%
Compound: O=C1NCC2(CCCCC2)n2c1cc1cnc(Nc3ccc(N4CCNCC4)cn3)nc12 [Q]
- inhibition of cellular proliferation of MCF-7 cells (FIGS. 21-24) [4]: significant inhibition of cellular proliferation
- inhibition of cellular proliferation of ZR75-1 cells (FIGS. 25-28) [5]: significant inhibition of cellular proliferation
- EdU incorporation into HSPCs at 12 and 24 hours (FIG. 5A) [6]: some reduction at 12 hours and started to return to baseline at 24 hours

- IC50 [3]: 0.2 nM
Compound: CC(C)(O)CN1CCN(c2ccc(Nc3ncc4cc5n(c4n3)C3(CCCC3)CNC5=O)nc2)CC1 [EEE]

- bioavailability [7]: 67%
Compound: O=C1NCC2(CCCCC2)n2c1cc1cnc(Nc3ccc(N4CCC(N5CCOCC5)CC4)cn3)nc12 [U]
- inhibition of cellular proliferation of MCF-7 cells (FIGS. 21-24) [4]: significant inhibition of cellular proliferation
- inhibition of cellular proliferation of ZR75-1 cells (FIGS. 25-28) [5]: significant inhibition of cellular proliferation
- tumor volume during a 28 day course of therapy ([8]; 100 mg/kg/d in chow): marked decrease in tumor volume
- objective response rate ([8]; 100 mg/kg/day medicated diet, 28 days, RECIST criteria): 100%

The next lines start with the molecule.

Compound: CC1CN(c2ccc(Nc3ncc4cc5n(c4n3)C3(CCCCC3)CNC5=O)nc2)C[C@@H](C)N1CC1CC1 (some centres unmarked) [OO]
- inhibition of cellular proliferation of MCF-7 cells (FIGS. 21-24) [4]: significant inhibition of cellular proliferation
- inhibition of cellular proliferation of ZR75-1 cells (FIGS. 25-28) [5]: significant inhibition of cellular proliferation

Compound: C[C@@H]1CN(c2ccc(Nc3ncc4cc5n(c4n3)C3(CCCCC3)CNC5=O)nc2)C[C@H](C)N1C[C@@H](C)O [MM]
- inhibition of cellular proliferation of MCF-7 cells (FIGS. 21-24) [4]: significant inhibition of cellular proliferation
- inhibition of cellular proliferation of ZR75-1 cells (FIGS. 25-28) [5]: significant inhibition of cellular proliferation

Compound: CC1(C)CN(c2ccc(Nc3ncc4cc5n(c4n3)C3(CCCCC3)CNC5=O)nc2)CCN1CC1CC1 [H]
- inhibition of cellular proliferation of MCF-7 cells (FIGS. 21-24) [4]: significant inhibition of cellular proliferation
- inhibition of cellular proliferation of ZR75-1 cells (FIGS. 25-28) [5]: significant inhibition of cellular proliferation

Compound: CN1CCN(C(=O)c2ccc(Nc3ncc4cc5n(c4n3)C3(CCCC3)CNC5=O)nc2)CC1 [BBB]
- EC50 ([4]; Homo sapiens, MCF7, 144 h, six days): 123 nM

Compound: CCC(C)[C@@H]1CNC(=O)c2cc3cnc(Nc4ccc(N5CCNCC5)cn4)nc3n21 (some centres unmarked) [VVV]
- Fold Selectivity (CDK2/CycE/CDK4) [1]: 589

From patent publication US9527857B2, “HSPC-sparing treatments for RB-positive abnormal cellular proliferation” (G1 Therapeutics, Inc., priority 2013, dated 2016)
